Consider one molecule from publication PMC7153278, “Discovery of Membrane-Bound Pyrophosphatase Inhibitors Derived from an Isoxazole Fragment” (ACS Medicinal Chemistry Letters, 2020).

A short description of this data set: Colloidal aggregation under TmPPase assay conditions (nephelometry). It counts as physicochemical. The method, then: Aggregation data for 5, 12k and 12l (Figure S1)
Potential colloidal aggregation in the TmPPase model system was studied at five concentrations (50 µM, 25 µM, 10 µM, 5 µM, and 1 µM). The original assay conditions were simulated, and the light scattering of potential aggregates in the mixture was studied by nephelometric methods using Nepheloskan Ascent® (Labsystems, Finland). Aggregation of the blank and compounds 5, 12k and 12l were measured as triplicates from one independent experiment at three different voltages (300 V, 400 V and 500 V) at room temperature.
5 µM and 1 µM concentrations the obtained values were close to those observed by the blank, thereby […]
Figure S1. Aggregation data for compounds 5, 12k and 12l. The data, measured in relative nephelometric units (RNU), is shown as the mean ± SD and normalized to the blank.
(1 picture or pasted object on this page, not shown here)
Experimental procedures and characterization data
Commercial analogues were retrieved by screening the ZINC12 database1 (clean drug-like subset; downloaded on 27.04.2016) using a KNIME2 workflow connected to the RDKit3 nodes. The SAR analyses and docking studies (data not shown) underlying this work were conducted using the Schrödinger molecular modeling platform (Canvas and Glide modules, respectively)4 .
Compounds 1–7, 13–20 and 24 were obtained from commercial suppliers. Supporting Information, Table S1 summarizes the compounds tested. Compound purity was >95% as determined by LC-MS and characterized by HRMS. For all commercial compounds after the initial screen, purity was tested independently from the vendor specification (a few compounds of lower purity are reported only in Supporting Information). To evaluate potential aggregation of samples in the TmPPase based assay, aggregate formation in the assay conditions was studied at five concentrations (50 μM, 25 μM, 10 μM, 5 μM, and 1 μM) for compounds 5, 12k and 12l (Figure S1).
All chemicals used were commercially available. Reactions using anhydrous conditions were conducted in oven-dried (130 °C, >24 h) glassware, purged with argon prior to use. Microwave reactions were performed using a Biotage Initiator+ instrument (Uppsala, Sweden). The progress of the reactions was monitored by thin-layer chromatography on silica gel 60-F254 aluminum plates and visualized by using a dual short/long wave (254/366 nm) UV lamp. The combined organic solutions from extractions were dried over anhydrous Na2SO4, filtered and concentrated with a rotary evaporator at reduced pressure. Flash SiO2 column chromatography was performed with automated high performance flash chromatography, Biotage Isolera™ Spektra Systems with ACI™ and Assist (ISO-1SW Isolera One) equipped with a variable UV-VIS (200–800 nm) photodiode array (Uppsala, Sweden) using SNAP KP-SIL/Ultra 10 g or 25 g cartridges and the indicated mobile phase gradient.
The reactions were not optimized and all the yields are given for purified products.
Characterization of the synthesized products were done by NMR and MS analysis. 1H and 13C NMR spectra were acquired at 298 K on a Bruker Ascend 400 MHz – Avance III HD NMR spectrometer (Bruker Corporation, Billerica, MA, USA). Chemical shifts (δ) are reported in parts per million (ppm) relative to the residual solvent signals: CDCl3 7.26 and 77.16 ppm, CD3OD 3.31 and 49.00 ppm, DMSO-d6 2.50 and 39.52 ppm for 1H and 13C NMR, respectively. […] High resolution mass (HRMS-ESI) data was reported for the calculated and experimentally […]

Molecules are shown by their SMILES.

As for `CC(C)(C)c1cc(-c2cc(C(=O)Oc3ccccc3Br)no2)cc(C(C)(C)C)c1` [Compound 12l], the “aggregation (light scattering)” value is on record as “only minor/no detectable aggregation” (at 10 µM, 5 µM and 1 µM); “showed aggregate formation” (at 50 µM and 25 µM).
